Experiments:
PD-1/PD-L1 = molecular target: T1, PD-1/PD-L1 (Homo sapiens, UniProt Q9NZQ7); assay: PD-1/PD-L1 Homogeneous Time-Resolved Fluorescence (HTRF) Binding Assay; settings: PD-1/PD-L1 HTRF activity; 3 nM PD1, 10 nM PD-L1, 25° C.
T1 construct: Recombinant human PD-L1 protein (19-238) with a Histag at the C-terminus; purchased AcroBiosystems PD1-H5229 (PD-L1); PD1-H5257 (PD-1)
Summary of the method: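 Human PD-L1 (19-238, His-tag) 10 nM and PD-1 (25-167, Fc-tag) 3 nM preincubated 40 min with inhibitor in PBS pH 7.4, 0.05% Tween-20, 0.1% BSA, 1% DMSO, 25 °C. Eu-anti-human IgG (1 nM) and anti-His-APC (20 nM) added, 60 min, 665/620 nm ratio; IC50 from percent control activity versus log concentration.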

[1] = molecular target: T2, extracellular domains of PD-L1 (Homo sapiens, UniProt Q9NZQ7); assay: PD-L1 Dimerization; assay type: biochemical; settings: PD-L1-Eu and PD-L1-A2, ratio 665 nm/615 nm
T2 construct: specifically dimerize the extracellular domains of PD-L1
Description: Example 108. PD-L1 Dimerization
Compounds were tested in biochemical protein-protein interaction assays to determine if they can specifically dimerize the extracellular domains of PD-L1. • (1) Diluted cpd 1:3 in succession in DMSO for each column for 10 samples • (2) Transferred 0.2 μL cpds solution in each row to 384 assay plate using Echo, each column containing 2 replicates • (3) Added 20 μL prepared mixture include PD-L1-Eu and PD-L1-A2 solution to assay plate, centrifuged at 1000 rpm for 1 min. • (4) Incubated at 25° C. for […]. • (5) Read fluorescence signal on Envision 2104 plate reader. • (6) Read the Ratio (665 nm/615 nm) signal on Envision. • (7) Analyzed the raw data using the equation (V. Data analysis)

T2 sequence (Q9NZQ7 19-238 limits assumed): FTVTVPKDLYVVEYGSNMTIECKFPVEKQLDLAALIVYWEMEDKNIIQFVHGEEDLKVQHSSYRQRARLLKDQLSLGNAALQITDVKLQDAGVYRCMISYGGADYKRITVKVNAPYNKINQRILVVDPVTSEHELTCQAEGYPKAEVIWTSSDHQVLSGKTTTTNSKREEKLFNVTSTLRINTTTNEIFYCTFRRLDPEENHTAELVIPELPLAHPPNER
T1 sequence (Q9NZQ7 19-238): as the sequence (Q9NZQ7 19-238 limits assumed) above

Row | Compound | IC50 (PD-1/PD-L1) | EC50 [1]
1 | Cn1c(CN2CC[C@H](C(=O)O)C2)cn2cc(-c3cccc(-c4cccc(-c5cc6c(=O)n(C)c(CN7CC[C@H](C(=O)O)C7)cn6c5)c4Cl)c3Cl)cc2c1=O [Compound 43, (3S,3'S)-1,1′-(((2,2′-dichloro-[1,1′-biphenyl]-3,3′-diyl)bis(2-methyl-1-oxo-1,2-dihydropyrrolo[1,2-a]pyrazine-7,3-diyl))bis(methylene))bis(pyrrolidine-3-carboxylic acid)] | 10 to 100 nM | 50 to 100 nM
2 | Cc1cn2cc(-c3cccc(-c4cccc(-c5cc6c(=O)n(CCNC[C@@H]7CCC(=O)N7)c(C)cn6c5)c4Cl)c3Cl)cc2c(=O)n1CCNC[C@@H]1CCC(=O)N1 [Compound 49, 7,7′-(2,2′-dichloro-[1,1′-biphenyl]-3,3′-diyl)bis(3-methyl-2-(2-((((S)-5-oxopyrrolidin-2-yl)methyl)amino)ethyl)pyrrolo[1,2-a]pyrazin-1(2H)-one)] | < 10 nM | ≥ 100 nM
3 | Cn1c(CN[C@@H](CO)C(=O)O)cn2nc(-c3cccc(-c4cccc(-c5cc6c(=O)n(C)c(CN[C@@H](CO)C(=O)O)cn6n5)c4Cl)c3Cl)cc2c1=O [Compound 80, (2S,2'S)-2,2′-((((2,2′-dichloro-[1,1′-biphenyl]-3,3′-diyl)bis(5-methyl-4-oxo-4,5-dihydropyrazolo[1,5-a]pyrazine-2,6-diyl))bis(methylene))bis(azanediyl))bis(3-hydroxypropanoic acid)] | 10 to 100 nM | ≥ 100 nM
4 | Cc1cn2nc(-c3cccc(-c4cccc(-c5cc6c(=O)n(CCN7C[C@@H](O)CC[C@H]7C(=O)O)c(C)cn6n5)c4Cl)c3Cl)cc2c(=O)n1CCN1C[C@@H](O)CC[C@H]1C(=O)O [Compound 84, (2S,2'S,5S,5'S)-1,1′-(((2,2′-dichloro-[1,1′-biphenyl]-3,3′-diyl)bis(6-methyl-4-oxopyrazolo[1,5-a]pyrazine-2,5(4H)-diyl))bis(ethane-2,1-diyl))bis(5-hydroxypiperidine-2-carboxylic acid)] | ≥ 100 nM | 
5 | Cc1cn2nc(-c3cccc(-c4cccc(-c5cc6c(=O)n(CCN7CCOCC7C(=O)O)c(C)cn6n5)c4Cl)c3Cl)cc2c(=O)n1CCN1CCOCC1C(=O)O (stereo not shown) [Compound 86, 4,4′-(((2,2′-dichloro-[1,1′-biphenyl]-3,3′-diyl)bis(6-methyl-4-oxopyrazolo[1,5-a]pyrazine-2,5(4H)-diyl))bis(ethane-2,1-diyl))bis(morpholine-3-carboxylic acid)] | ≥ 100 nM | 
6 | Cc1cn2nc(-c3cccc(-c4cccc(-c5cc6c(=O)n(CC(C)N[C@@H](CO)C(=O)O)c(C)cn6n5)c4Cl)c3Cl)cc2c(=O)n1CC(C)N[C@@H](CO)C(=O)O (stereo partly drawn) [Compound 87, (2S,2'S)-2,2′-((((2,2′-dichloro-[1,1′-biphenyl]-3,3′-diyl)bis(6-methyl-4-oxopyrazolo[1,5-a]pyrazine-2,5(4H)-diyl))bis(propane-1,2-diyl))bis(azanediyl))bis(3-hydroxypropanoic acid)] | ≥ 100 nM | 
7 | Cc1cn2nc(-c3cccc(-c4cccc(-c5cc6c(=O)n(CCNC7(C(=O)O)CCC(O)CC7)c(C)cn6n5)c4Cl)c3Cl)cc2c(=O)n1CCNC1(C(=O)O)CCC(O)CC1 (stereo not shown) [Compound 88, 1,1′-((((2,2′-dichloro-[1,1′-biphenyl]-3,3′-diyl)bis(6-methyl-4-oxopyrazolo[1,5-a]pyrazine-2,5(4H)-diyl))bis(ethane-2,1-diyl))bis(azanediyl))bis(4-hydroxycyclohexane-1-carboxylic acid)] | 10 to 100 nM | 
8 | Cc1cn2nc(-c3cccc(-c4cccc(-c5cc6c(=O)n(CCN[C@H]7C[C@H](O)C7)c(C)cn6n5)c4Cl)c3Cl)cc2c(=O)n1CCN[C@H]1C[C@H](O)C1 [Compound 90, 2,2′-(2,2′-dichloro-[1,1′-biphenyl]-3,3′-diyl)bis(5-(2-(((1r,3r)-3-hydroxycyclobutyl)amino)ethyl)-6-methylpyrazolo[1,5-a]pyrazin-4(5H)-one)] | < 10 nM | < 50 nM
9 | Cc1cn2nc(-c3cccc(-c4cccc(-c5cc6c(=O)n(CCN[C@H]7C[C@@H](O)C7)c(C)cn6n5)c4Cl)c3Cl)cc2c(=O)n1CCN[C@H]1C[C@@H](O)C1 [Compound 91, 2,2′-(2,2′-dichloro-[1,1′-biphenyl]-3,3′-diyl)bis(5-(2-(((1s,3s)-3-hydroxycyclobutyl)amino)ethyl)-6-methylpyrazolo[1,5-a]pyrazin-4(5H)-one)] | < 10 nM | < 50 nM
10 | Cc1cn2nc(-c3cccc(-c4cccc(-c5cc6c(=O)n(C[C@@H]7C[C@@H](O)CN7)c(C)cn6n5)c4Cl)c3Cl)cc2c(=O)n1C[C@@H]1C[C@@H](O)CN1 [Compound 92, 2,2′-(2,2′-dichloro-[1,1′-biphenyl]-3,3′-diyl)bis(5-(((2S,4R)-4-hydroxypyrrolidin-2-yl)methyl)-6-methylpyrazolo[1,5-a]pyrazin-4(5H)-one)] | < 10 nM | 
11 | Cc1cn2nc(-c3cccc(-c4cccc(-c5cc6c(=O)n(CCN7CCCC7CCO)c(C)cn6n5)c4Cl)c3Cl)cc2c(=O)n1CCN1CCCC1CCO (stereo not shown) [Compound 93, 2,2′-(2,2′-dichloro-[1,1′-biphenyl]-3,3′-diyl)bis(5-(2-(2-(2-hydroxyethyl)pyrrolidin-1-yl)ethyl)-6-methylpyrazolo[1,5-a]pyrazin-4(5H)-one)] | 10 to 100 nM | 
12 | Cc1cn2nc(-c3cccc(-c4cccc(-c5cc6c(=O)n(C(C)CN[C@@H](CO)C(=O)O)c(C)cn6n5)c4Cl)c3Cl)cc2c(=O)n1C(C)CN[C@@H](CO)C(=O)O (stereo partly drawn) [Compound 94, (2S,2'S)-2,2′-((((2,2′-dichloro-[1,1′-biphenyl]-3,3′-diyl)bis(6-methyl-4-oxopyrazolo[1,5-a]pyrazine-2,5(4H)-diyl))bis(propane-2,1-diyl))bis(azanediyl))bis(3-hydroxypropanoic acid)] | 10 to 100 nM | 
13 | Cc1cn2nc(-c3cccc(-c4cccc(-c5cc6c(=O)n(CCN[C@@](C)(CO)C(=O)O)c(C)cn6n5)c4Cl)c3Cl)cc2c(=O)n1CCN[C@@](C)(CO)C(=O)O [Compound 95, (2S,2'S)-2,2′-((((2,2′-dichloro-[1,1′-biphenyl]-3,3′-diyl)bis(6-methyl-4-oxopyrazolo[1,5-a]pyrazine-2,5(4H)-diyl))bis(ethane-2,1-diyl))bis(azanediyl))bis(3-hydroxy-2-methylpropanoic acid)] | 10 to 100 nM | ≥ 100 nM
14 | Cc1cn2nc(-c3cccc(-c4cccc(-c5cc6c(=O)n(CCN[C@](C)(CO)C(=O)O)c(C)cn6n5)c4Cl)c3Cl)cc2c(=O)n1CCN[C@](C)(CO)C(=O)O [Compound 96, (2R,2′R)-2,2′-((((2,2′-dichloro-[1,1′-biphenyl]-3,3′-diyl)bis(6-methyl-4-oxopyrazolo[1,5-a]pyrazine-2,5(4H)-diyl))bis(ethane-2,1-diyl))bis(azanediyl))bis(3-hydroxy-2-methylpropanoic acid)] | 10 to 100 nM | ≥ 100 nM
15 | Cc1cn2nc(-c3cccc(-c4cccc(-c5cc6c(=O)n(CCN[C@]7(C(=O)O)C[C@@H](O)C7)c(C)cn6n5)c4Cl)c3Cl)cc2c(=O)n1CCN[C@]1(C(=O)O)C[C@@H](O)C1 [Compound 101, (1r,1′r,3r,3′r)-1,1′-((((2,2′-dichloro-[1,1′-biphenyl]-3,3′-diyl)bis(6-methyl-4-oxopyrazolo[1,5-a]pyrazine-2,5(4H)-diyl))bis(ethane-2,1-diyl))bis(azanediyl))bis(3-hydroxycyclobutane-1-carboxylic acid)] | < 10 nM | < 50 nM
16 | Cc1cn2nc(-c3cccc(-c4cccc(-c5cc6c(=O)n(CCN[C@]7(C(=O)O)C[C@H](O)C7)c(C)cn6n5)c4Cl)c3Cl)cc2c(=O)n1CCN[C@]1(C(=O)O)C[C@H](O)C1 [Compound 102, (1S,1'S,3S,3'S)-1,1′-((((2,2′-dichloro-[1,1′-biphenyl]-3,3′-diyl)bis(6-methyl-4-oxopyrazolo[1,5-a]pyrazine-2,5(4H)-diyl))bis(ethane-2,1-diyl))bis(azanediyl)) bis(3-hydroxycyclobutane-1-carboxylic acid)] | < 10 nM | 
17 | (2S,2'S,4R,4′R)-1,1′-(((2,2′-dichloro-[1,1′-biphenyl]-3,3′-diyl)bis(3-methyl-1-oxopyrrolo[1,2-a]pyrazine-7,2(1H)-diyl))bis(ethane-2,1-diyl))bis(4-hydroxypyrrolidine-2-carboxylic acid) [Compound 59] | ≥ 100 nM | 
